Experimental data: US20130131008A1, “LIPOPHILIC MONOPHOSPHORYLATED DERIVATIVES AND NANOPARTICLES” (BOARD OF REGENTS, THE UNIVERSITY OF TEXAS SYSTEM, priority 2011, published 2013)

Legend:
TC-1-GR cells = experiment: cells; format: cell-based
Excerpt: (§1) Human leukemia cell line CCRF-CEM (CCL-119), human pancreatic cancer cell lines PANC-1 (CRL-1469), MIA PaCa-2 (CRL-1420), and BxPC-3 (CRL-1687), human breast adenocarcinoma cell line MCF-7 (HTB-22), and mouse lung cancer cell line TC-1 (CRL-2785) were from the American Type Culture Collection (Rockville, Md.). CCRF-CEM-AraC-8C cells (hENT1 deficient) and CCRF-CEM/dCK^−/− cells (dCK deficient) were kindly provided by Dr. Buddy Ullmann (Oregon Health & Science University, Portland, Oreg.) and Dr. Margaret Black (Washington State University, Pullman, Wash.), respectively. L1210 wt and L1210 10K were kindly supplied by Dr. Lars Petter Jordheim (Université Claude Bernard Lyon I, Lyon, France). TC-1-GR cells were previously developed in our lab. CCRF-CEM, CCRF-CEM-AraC-8C, CCRF-CEM/dCK^−/−, L1210 wt, L1210 10K, TC-1, and TC-1-GR cells were cultured in RPMI 1640 medium. MCF-7 and PANC-1 cells were cultured in Dulbecco's modified Eagle medium (DMEM), MIA PaCa-2 cells were cultured in DMEM medium with 2.5% horse serum. All media were supplemented with 10% fetal bovine serum (FBS), 100 U/mL of penicillin, and 100 μg/mL of streptomycin (all from Invitrogen, Carlsbad, Calif.).
(§2) Cells (5,000/well) were seeded in 96-well plates. After overnight incubation, they were treated with various concentrations of gemcitabine HCl, gemcitabine derivatives, or gemcitabine derivatives in nanoparticles at 37° C., 5% CO2. TC-1 and TC-1-GR cells were incubated for 48 h. CCRF-CEM, CCRF-CEM-AraC-8C, CCRF-CEM/dCK^−/−, L1210 wt, L1210 10K, and MCF-7 cells were incubated for 72 h, and MIA PaCa-2 and PANC-1 for 96 h. Gemcitabine HCl was dissolved in phosphate-buffered saline (PBS), and gemcitabine derivatives were dissolved in dimethyl sulfoxide (DMSO). […] The number of viable cells after the incubation was determined using an MTT assay. Briefly, 3-(4,5-dimethylthiazol-2-yl)-2,5-diphenyltetrazolium bromide (20 μl, 5 mg/mL) was added in each well and incubated for 3 h. Formazan crystals were solubilized with acidified isopropanol (150 μl) (for CCRF-CEM, CCRF-CEM-AraC-8C, CCRF-CEM/dCK^−/−, L1210 wt, and L1210 10K cells) or DMSO (150 μl) (for TC-1, TC-1-GR, MCF-7, PANC-1, and MIA PaCa-2). Absorbance was measured using a BioTek Synergy™ HT Multi-Mode Microplate Reader (BioTek Instruments, Winooski, Vt.) at 570 nm and 630 nm. The fraction of affected (dead) cells (Fa) and the fraction of unaffected (live) cells (Fu) at every dose were calculated, and the Log(Fa/Fu) values were plotted against the Log(concentration of gemcitabine). IC50 was the dose at Log(Fa/Fu)=0, See e.g., Chou, T. C. & Talalay, P., 1984, Adv. Enzyme Regul. 22:27-55. The experiment was repeated at least three times.

PANC-1 cells = experiment: In vitro cytotoxicity assay (MTT), 96 h, RRM2 over-expressing cells; format: cell-based, human; conditions: for Ratio of IC50 in PANC-1 to that in MIA PaCa-2: HCl
Excerpt: as §1, §2

TC-1-GR tumors = conditions: mice with pre-established TC-1-GR tumors; cited from earlier work
L1210 10K cells = experiment: In vitro cytotoxicity assay (MTT), 72 h, dCK deficient cells; format: cell-based, murine
Excerpt: as §1
Cells (5,000/well) were seeded in 96-well plates. After overnight incubation, they were treated with various concentrations of gemcitabine HCl, gemcitabine derivatives, or gemcitabine derivatives in nanoparticles at 37° C., 5% CO2. TC-1 and TC-1-GR cells were incubated for 48 h. CCRF-CEM, CCRF-CEM-AraC-8C, CCRF-CEM/dCK^−/−, L1210 wt, L1210 10K, and MCF-7 cells were incubated for 72 h, and MIA PaCa-2 and PANC-1 for 96 h. […] The number of viable cells after the incubation was determined using an MTT assay. […] Absorbance was measured using a BioTek Synergy™ HT Multi-Mode Microplate Reader (BioTek Instruments, Winooski, Vt.) at 570 nm and 630 nm. The fraction of affected (dead) cells (Fa) and the fraction of unaffected (live) cells (Fu) at every dose were calculated, and the Log(Fa/Fu) values were plotted against the Log(concentration of gemcitabine). […]

Q: For `Cl.Nc1ccn([C@@H]2O[C@H](CO)[C@@H](O)C2(F)F)c(=O)n1` [Gemcitabine HCl, 2′,2′-difluorodeoxycytidine HCl, reference compound], which “Ratio of IC50 in TC-1-GR to that in TC-1” value (TC-1-GR cells) is on record?
A: 2,497

Q: And the “Ratio of IC50 values in TC-1-GR cells” value (TC-1-GR cells; IC50 of gemcitabine HCl divided by that of the derivatives or derivatives in nanoparticles)?
A: 1

Q: What about the IC50 (TC-1-GR cells; Mus musculus, MTT, 48 h incubation, RRM1 over-expressing) of the same molecule?
A: 36.7 ± 5.1 µM

Q: What about the “Ratio of IC50 in PANC-1 to that in MIA PaCa-2” value (PANC-1 cells) of the same molecule?
A: >8,000

Q: And the IC50 (PANC-1 cells; Homo sapiens, PANC-1, MTT, 96 h incubation, RRM2 over-expressing)?
A: > 400 µM

Q: And the “PANC-1 cells still alive” value (PANC-1 cells; after 96 h of incubation with 400 μM)?
A: more than 50%

Q: What about the “Ratio of IC50 in PANC-1 to that in MIA PaCa-2” value (PANC-1 cells; listed as gemcitabine HCl) of the same molecule?
A: more than 8,000

Q: And the “TC-1-GR tumor growth in mice (previous study)” value (TC-1-GR tumors)?
A: did not show any significant anti-tumor activity

Q: And the “Ratio of IC50 in L1210 10K to that in L1210 wt” value (L1210 10K cells)?
A: 17,046

Q: And the “Ratio of IC50 values in L1210 10K cells” value (L1210 10K cells; IC50 of gemcitabine HCl divided by that of the nanoparticles)?
A: 1

Q: And the IC50 (L1210 10K cells; Mus musculus, L1210, MTT, 72 h incubation, dCK deficient)?
A: 22.2 ± 3.7 µM
